# Experimental data reported in patent US20090093446A1, “METHOD FOR ALLEVIATING KERATOCONJUNCTIVITIS SICCA” (priority 2007, published 2009).
# What was measured:
# Assay type in all cases: in vivo, human
# [1] = system: patients with migraine headache; assay: capsaicin cream applied to nasal mucosa in migraine headache; conditions: 0.025% by weight capsaicin cream to nasal mucosa
# [2] = system: patients with migraine headache disorder; assay: intranasal capsaicin cream for acute migraine pain, two patients; conditions: 0.025% by weight capsaicin cream intranasally, both of two migraine patients
# Procedure: Two patients with migraine headache disorder were administered 0.025% by weight capsaicin cream intranasally for acute relief of their migraine pain. Both reported increased lacrimation within 30 minutes of application of the capsaicin cream.
# [3] = system: episodic cluster headache patients; assay: civamide nasal spray versus inactive control in episodic cluster headache; conditions: 0.01% by weight civamide nasal spray twice daily, 36 patients
# [4] = system: patients with vasomotor rhinitis (non-allergic rhinitis); assay: double-blind placebo-controlled 2 week evaluation of civamide nasal spray in vasomotor rhinitis; conditions: 0.01% by weight civamide nasal spray, 2 weeks
# Source text: Fifty-five (55) patients with vasomotor rhinitis (non-allergic rhinitis) participated in a double-blind placebo-controlled 2 week evaluation of the symptomatic relief afforded patients by 0.01% by weight civamide nasal spray or placebo nasal spray (vehicle for active product). Thirty-one percent (31%) of patients using 0.01% civamide spray reported increased tearing, while 0% of patients on placebo noted such a side effect.
# normal volunteers = assay: multi-dose 14 day tolerance study of civamide nasal spray; conditions: 14 days, 10 normal volunteers
# [5] = system: patients with episodic cluster headache; assay: civamide nasal drops in episodic cluster headache; conditions: 0.025% by weight civamide nasal drops once daily for 1 week, 9 of 18 patients
# Source text: In a study utilizing 0.025% by weight civamide nasal drops administered once daily for 1 week to 28 patients with episodic cluster headache (a severe form of vasomotor headache that occurs in general 4-24 week clusters), 9 of 18 patients (50%) on civamide nasal drops had increased tearing versus 0 of 10 patients (0%) on vehicle control.
SMILES,patients who reported increased tearing as a side effect [1] [%],patients who noted some relief of their headaches ([1]; 4 hours after administration) [%],time to reported increased lacrimation after application [2] [min],patients who reported increased tearing [3] [%],patients who reported increased tearing [4] [%],subjects who experienced increased lacrimation (tear production) (normal volunteers; 0.0075% by weight civamide nasal spray twice daily) [%],subjects who experienced increased lacrimation (tear production) (normal volunteers; 0.01% by weight civamide nasal spray twice daily) [%],subjects who experienced increased tearing (normal volunteers; […] by weight civamide nasal spray once daily) [%],patients who had increased tearing [5] [%]
COc1cc(CNC(=O)CCCC/C=C/C(C)C)ccc1O [capsaicin],44,73,≤ 30,–,–,–,–,–,–
"COc1cc(CNC(=O)CCCC/C=C\C(C)C)ccc1O [civamide, cis-8-methyl-N-vanillyle-nonenamide]",–,–,–,51,31,100,100,90,50
